What was measured:
HypX [1] = target: T1, HypX (Aquifex aeolicus, UniProt O67224, Q15A/R131A/S194A/Q195A/N306A/R542A); assay: native MS; assay type: binding; conditions: non-denaturing, 500 mM ammonium acetate pH 6.8; co-purified from E. coli; CoA absent in crystal structure 6J1H
T1 construct: gene hoxX; residues up to 562 described; acid-denatured mass 67,531 Da; monomer; N-terminal domain 1-270, C-terminal domain 289-542

HypX [2] = target: T2, HypX (Aquifex aeolicus, UniProt O67224, R9A/Q15A/R131A/R542A); assay: X-ray crystallography; assay type: binding; conditions: co-purified from E. coli; folded conformation
T2 construct: gene hoxX; residues up to 562 described; acid-denatured mass 67,531 Da; monomer; N-terminal domain 1-270, C-terminal domain 289-542

HypX [3] = target: T3, HypX (Aquifex aeolicus, UniProt O67224); assay: X-ray crystallography; native MS; assay type: binding; conditions: co-purified from E. coli, none added; non-covalent; folded conformation, C-terminal part of cavity; also Form II crystal 6J1E
T3 construct: gene hoxX; residues up to 562 described; acid-denatured mass 67,531 Da; monomer; N-terminal domain 1-270, C-terminal domain 289-542

HypX [4] = target: T4, HypX (Aquifex aeolicus, UniProt O67224, A392F/I419F); assay: X-ray crystallography; assay type: binding; conditions: co-purified from E. coli; extended conformation, without THF (THF-bound structure 6J1J also holds CoA)
T4 construct: gene hoxX; residues up to 562 described; acid-denatured mass 67,531 Da; monomer; N-terminal domain 1-270, C-terminal domain 289-542

HypX [5] = target: T3, HypX; assay: X-ray crystallography, crystal soaking; assay type: binding; conditions: Form I crystals soaked with THF; N-terminal domain, chain A only
HypX [6] = target: T4, HypX; assay: X-ray crystallography, crystal soaking; assay type: binding; conditions: CoA also bound, extended conformation; N-terminal region of cavity
[7] = target: A. aeolicus HypC (Aquifex aeolicus); assay: SEC; Superdex75 10/300GL, 50 mM Tris-HCl (pH 8.0), 200 mM NaCl, 1 mM DTT; HypC alone, HypD alone, and HypC and HypD mixed in equal molar amount; apparent masses
[8] = target: HypC/HypD complex (A. aeolicus) (Aquifex aeolicus) (UniProt O67225); assay: SEC; Superdex200 10/300GL, 50 mM Tris-HCl (pH 8.0), 200 mM NaCl, 1 mM DTT; HypC, HypD and HypX mixed in equal molar amount; apparent mass

T3 sequence (O67224 entry or part of it): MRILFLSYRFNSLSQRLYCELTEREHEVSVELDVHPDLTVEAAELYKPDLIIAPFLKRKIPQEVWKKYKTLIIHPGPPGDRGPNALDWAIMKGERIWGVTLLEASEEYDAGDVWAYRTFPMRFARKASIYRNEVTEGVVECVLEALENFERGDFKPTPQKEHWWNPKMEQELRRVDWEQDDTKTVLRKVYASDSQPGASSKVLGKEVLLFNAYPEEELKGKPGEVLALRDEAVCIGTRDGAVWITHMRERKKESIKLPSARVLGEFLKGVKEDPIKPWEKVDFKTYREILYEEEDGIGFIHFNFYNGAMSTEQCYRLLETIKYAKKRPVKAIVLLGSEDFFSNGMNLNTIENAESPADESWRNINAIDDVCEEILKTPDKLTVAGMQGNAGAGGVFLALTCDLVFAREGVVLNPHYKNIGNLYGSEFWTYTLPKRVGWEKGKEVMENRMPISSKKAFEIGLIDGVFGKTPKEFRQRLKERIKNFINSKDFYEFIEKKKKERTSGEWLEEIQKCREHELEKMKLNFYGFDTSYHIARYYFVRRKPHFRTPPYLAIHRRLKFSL
T4 sequence (O67224 entry or part of it A392F/I419F): as the sequence (O67224 entry or part of it) above, with A392F, I419F counted along it
T2 sequence (O67224 entry or part of it R9A/Q15A/R131A/R542A): as the sequence (O67224 entry or part of it) above, with R9A, Q15A, R131A, R542A counted along it
T1 sequence (O67224 entry or part of it Q15A/R131A/S194A/Q195A/N306A/R542A): as the sequence (O67224 entry or part of it) above, with Q15A, R131A, S194A, Q195A, N306A, R542A counted along it

CC(C)(COP(=O)(O)OP(=O)(O)OC[C@H]1O[C@@H](n2cnc3c(N)ncnc32)[C@H](O)[C@@H]1OP(=O)(O)O)[C@@H](O)C(=O)NCCC(=O)NCCS [CoA]
native MS (HypX [1]): showed two MS peaks due to apo (CoA-free) and holo (CoA-bound) form
X-ray crystallography (HypX [2]): this variant binds CoA with the folded conformation as is the case of wild-type
X-ray crystallography; native MS (HypX [3]): HypX binds CoA constitutively with a high binding affinity
X-ray crystallography (HypX [4]): CoA is able to adopt the extended conformation in the A392F-I419F variant

Nc1nc2c(c(=O)[nH]1)N[C@@H](CNc1ccc(C(=O)N[C@@H](CCC(=O)O)C(=O)O)cc1)CN2 [THF]
X-ray crystallography, crystal soaking (HypX [5]): We obtained HypX-THF complex by soaking Form I HypX crystals with THF
X-ray crystallography, crystal soaking (HypX [6]): THF is bound at the N-terminal region of the cavity at the same position

A. aeolicus HypC (natural protein)
stoichiometry N [7]: 2

HypX from Aquifex aeolicus (enzyme)
stoichiometry N [8]: 1

— publication PMC6802093, “Structural characterization of HypX responsible for CO biosynthesis in the maturation of NiFe-hydrogenase” (Communications Biology, 2019)
